Some test systems named below: IGROV1 ovarian; PC-3 prostate; TK-10 renal; HOP-92 NSCLC; MDA-MB-231 breast; HCT-116 colon; SF-268 CNS; SF-295 CNS; HOP-62 NSCLC; OVCAR-3 ovarian.
Common to all, as to experiment: growth of human tumour cells (NCI), 48 h

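Step 1: Grow cells in 96-well plates. Step 2: Expose to compound for 48 hours at 5 concentrations. Step 3: Interpolate endpoints linearly; if unreached, use highest concentration. The concentration for 50% growth inhibition is given as GI50. The concentration for full growth arrest is given as TGI.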

With `COc1ccc(C2=CC(c3ccc4c(c3)OCO4)c3c(c4ccccc4oc3=O)O2)cc1OC` (centres undefined), the TGI in the assay with IGROV1 ovarian, in the assay on PC-3 prostate, in the assay with TK-10 renal, with HOP-92 NSCLC, in the assay on MDA-MB-231 breast and in the assay on HCT-116 colon was more than 100 µM throughout. The TGI in the assay with SF-268 CNS, in the assay on SF-295 CNS and in the assay on HOP-62 NSCLC was more than 100 µM in each case.
In the case of `CC(C)(C)n1cc(-c2ccnc(NCCCNS(=O)(=O)c3ccc(C(F)(F)F)cc3)c2)c(-c2cccc(O)c2)n1`, the GI50 in the assay with IGROV1 ovarian was 1.8 µM; with PC-3 prostate it was 1.64 µM; with TK-10 renal, 2.31 µM; in the assay with HOP-92 NSCLC it was 1.6 µM; in the assay on MDA-MB-231 breast, 2.13 µM; in the assay with HCT-116 colon it was 1.55 µM. Also, the GI50 in the assay with SF-295 CNS was 1.69 µM; with HOP-62 NSCLC, 1.93 µM; in the assay with OVCAR-3 ovarian, 1.96 µM. Besides, the TGI in the assay on IGROV1 ovarian was 3.55 µM; with PC-3 prostate, 3.72 µM; with TK-10 renal it was 5.28 µM; with HOP-92 NSCLC it was 3.31 µM; in the assay on MDA-MB-231 breast, 3.98 µM; with HCT-116 colon it was 3.08 µM. Moreover, the results for the TGI with SF-295 CNS, with HOP-62 NSCLC and in the assay with OVCAR-3 ovarian were 3.12 µM, 3.85 µM and 3.84 µM, respectively.
As to `CN1C(=Nc2ccccc2)SC1=Nc1ccccc1`, the TGI with IGROV1 ovarian was more than 100 µM; in the assay on TK-10 renal, more than 100 µM; in the assay on HOP-92 NSCLC it was 58.5 µM; in the assay on HCT-116 colon, more than 100 µM; in the assay on SF-268 CNS, more than 100 µM; in the assay on SF-295 CNS, more than 100 µM. Besides, the TGI in the assay with HOP-62 NSCLC and with OVCAR-3 ovarian was more than 100 µM throughout.
As to `CC(C)(C)c1ccc(Oc2nccc(-c3c(-c4ccc(F)cc4)ncn3C3CCNCC3)n2)cc1`, the GI50 is 3.86 µM in the assay on IGROV1 ovarian; 2.88 µM in the assay on PC-3 prostate; 4.4 µM in the assay on TK-10 renal; 3.87 µM in the assay with MDA-MB-231 breast; 3.58 µM with HCT-116 colon; 3.34 µM in the assay on SF-268 CNS. Also, the GI50 in the assay on SF-295 CNS is 4.65 µM; in the assay with HOP-62 NSCLC, 4.25 µM; in the assay with OVCAR-3 ovarian, 4.25 µM. Moreover, the TGI in the assay on IGROV1 ovarian was 8.01 µM; in the assay on PC-3 prostate, 6.19 µM; in the assay with TK-10 renal, 8.04 µM; with MDA-MB-231 breast, 7.39 µM; in the assay with HCT-116 colon it was 7.07 µM; in the assay on SF-268 CNS it was 7.07 µM. The TGI in the assay with SF-295 CNS worked out at 8.68 µM; in the assay on HOP-62 NSCLC, 7.88 µM; in the assay with OVCAR-3 ovarian it was 7.77 µM.
Turning to `CCS(CC)(CC)CC1CCCC2=CCC(P(=O)(c3ccccc3)c3ccccc3)CC21` (centres undefined), the TGI in the assay with IGROV1 ovarian came to 28.1 µM; in the assay with TK-10 renal, 27 µM; with HOP-92 NSCLC, 16.4 µM; with HCT-116 colon it was 20.7 µM; in the assay on SF-268 CNS, 26.1 µM; with SF-295 CNS, 16.3 µM. Moreover, the TGI in the assay on HOP-62 NSCLC was determined as 32 µM; in the assay on OVCAR-3 ovarian it was 30.5 µM.
`Nc1ccnc(=O)[nH]1`: the TGI in the assay on IGROV1 ovarian, in the assay on TK-10 renal, in the assay with HOP-92 NSCLC, in the assay on HCT-116 colon, in the assay on SF-268 CNS and in the assay with SF-295 CNS was more than 100 µM in each case. Moreover, the TGI with HOP-62 NSCLC and in the assay with OVCAR-3 ovarian was more than 100 µM each time.
In the case of `FC(F)(F)c1ccc(Nc2nc(-c3c(C(F)(F)F)nc4ccccn34)cs2)cc1`, the GI50 in the assay on IGROV1 ovarian was 0.422 µM; with PC-3 prostate, 0.0425 µM; in the assay on TK-10 renal it was 0.917 µM; in the assay on MDA-MB-231 breast, 0.81 µM; in the assay with HCT-116 colon, 0.0426 µM; in the assay on SF-268 CNS, 0.0754 µM. Further, the GI50 is 0.033 µM in the assay with SF-295 CNS, 0.0564 µM in the assay with HOP-62 NSCLC and 0.0264 µM in the assay with OVCAR-3 ovarian. Further, the TGI with IGROV1 ovarian was 12.1 µM; in the assay with PC-3 prostate, 8.54 µM; with TK-10 renal, 8.12 µM; in the assay on MDA-MB-231 breast it was 6.93 µM; in the assay with HCT-116 colon, 2.38 µM; with SF-268 CNS, 10.7 µM. Further, the TGI with SF-295 CNS was determined as 1.28 µM; in the assay with HOP-62 NSCLC it was 9.14 µM; in the assay with OVCAR-3 ovarian, 0.0787 µM.
`COC(=O)/C(C)=C(/CCC1(C)OCCO1)O[Si](C)(C)C`: the TGI in the assay with IGROV1 ovarian, in the assay with TK-10 renal, in the assay on HOP-92 NSCLC, with HCT-116 colon, in the assay on SF-268 CNS and in the assay with SF-295 CNS was more than 100 µM each time. The TGI in the assay with HOP-62 NSCLC and in the assay on OVCAR-3 ovarian was more than 100 µM in each case.
`c1ccc2c(c1)cc(C1NCCc3[nH]cnc31)c1ccccc12` (centres undefined): the TGI is more than 100 µM in the assay on IGROV1 ovarian; more than 100 µM in the assay with TK-10 renal; more than 95.6 µM with HOP-92 NSCLC; 42.7 µM in the assay on HCT-116 colon; more than 100 µM in the assay on SF-268 CNS; more than 100 µM in the assay on SF-295 CNS. Further, the TGI with HOP-62 NSCLC is more than 88.6 µM; in the assay on OVCAR-3 ovarian it was more than 100 µM.
On to `COc1cnc2c(c1)C(=O)c1c-2n(CCCn2ccnc2)c(=O)c2cc(F)ccc12`, for which the GI50 was 0.0576 µM with PC-3 prostate; 0.154 µM with HOP-92 NSCLC; 0.35 µM in the assay on MDA-MB-231 breast; less than 0.01 µM with HCT-116 colon; less than 0.01 µM in the assay on SF-295 CNS; less than 0.01 µM with HOP-62 NSCLC. Besides, in the assay on OVCAR-3 ovarian, the GI50 is 0.0437 µM. For the same compound, the TGI in the assay on PC-3 prostate is more than 100 µM; in the assay with HOP-92 NSCLC it was 3.11 µM; in the assay with MDA-MB-231 breast, 2.17 µM; in the assay on HCT-116 colon, 0.141 µM; in the assay on SF-295 CNS it was 0.352 µM; in the assay with HOP-62 NSCLC, 0.176 µM. The TGI with OVCAR-3 ovarian was determined as 0.382 µM.
Consider `Oc1ccccc1/C=C/c1csnn1`, for which the TGI in the assay with IGROV1 ovarian, with TK-10 renal, with HOP-92 NSCLC, in the assay with HCT-116 colon, with SF-268 CNS and with SF-295 CNS was more than 100 µM each time. In addition, the TGI with HOP-62 NSCLC and in the assay on OVCAR-3 ovarian was more than 100 µM in each case.
For the compound `CN(CCCn1c2c(c3ccccc3c1=O)C(=O)c1ccccc1-2)CCCn1c2c(c3ccccc3c1=O)C(=O)c1ccccc1-2`, the GI50 in the assay with PC-3 prostate was 0.29 µM; in the assay with HOP-92 NSCLC, 0.0671 µM; in the assay on HCT-116 colon, 0.0133 µM; in the assay on SF-268 CNS, 1.64 µM; in the assay with SF-295 CNS, 0.122 µM. For the same compound, the TGI in the assay on HOP-92 NSCLC is 1.9 µM; in the assay on HCT-116 colon it was 0.37 µM; in the assay on SF-268 CNS, more than 100 µM; in the assay on SF-295 CNS, 9.5 µM.

These data come from PubChem BioAssay (NCI).
